Data taken from patent publication US20090088460A1, “Administration of E-3[3-[N-(4-methoxybenzenesulfonyl)-N-isopropylamino]phenyl]-3-(3-pyridyl)propenohydroxamic acid for preventing and/or treating inflammatory cutaneous pathologies/afflictions” (GALDERMA RESEARCH &DEVELOPMENT, priority 2007, published 2009).

What was measured:
[1] = system: arachidonic acid-induced mouse ear edema; assay: Arachidonic acid-induced mouse ear edema test, single topical application; type: in vivo; conditions: Balb/c mice; for reduction of the arachidonic acid-induced ear edema: 20 μl on right ear
Protocol: Evaluation of the Anti-Inflammatory Activity of W3646 (Compound (I)) after Single Topical Application in the Arachidonic Acid-Induced Mouse Ear Edema Test on Balb/c Mice
The arachidonic acid is dissolved in a mixture of THF/methanol at 4%.
The test compound is dissolved in the solution of arachidonic acid (AA) at the final concentration, and tested at concentrations of 0.1, 0.3 and 1%.
20 μl of the solution are applied to the inner face of the right ear.
The thickness of the ear is measured at T+1 h, T+2 h and T+4 h.

[2] = system: TPA-induced mouse ear edema; assay: TPA-induced mouse ear edema test, single topical application; type: in vivo; conditions: Balb/c mice; for reduction of the TPA-induced ear edema: T+6 h
Protocol: Evaluation of the Anti-Inflammatory Activity of W3646 (Compound (I)) after Single Topical Application in the TPA-Induced Mouse Ear Edema Test on Balb/c Mice (TPA=Tetradecanoylphorbol Acetate)
The edema is induced by single application of 20 μl of TPA dissolved in acetone at 0.01%. […]
A positive control, β-methasone valerate (VdB), is also tested.
The thickness of the mouse ear is measured at T+6 h.

## COc1ccc(S(=O)(=O)N(c2cccc(/C(=C\C(=O)NO)c3cccnc3)c2)C(C)C)cc1 [W3646, E-3-[3-[N-(4-methoxybenzene-sulfonyl)-N-isopropylamino]phenyl]-3-(3-pyridyl)-propenohydroxamic acid]
[1]; 0.1% topical in 4% arachidonic acid solution, NS
  reduction of the arachidonic acid-induced ear edema: 16%
[1]; 0.3% topical in 4% arachidonic acid solution, *
  reduction of the arachidonic acid-induced ear edema: 49%
[1]; 1% topical in 4% arachidonic acid solution, **
  reduction of the arachidonic acid-induced ear edema: 71%
[2]; 0.1% in 0.01% TPA solution, NS
  reduction of the TPA-induced ear edema: 26%
[2]; 0.3% in 0.01% TPA solution, **
  reduction of the TPA-induced ear edema: 53%
[2]; 1% in 0.01% TPA solution, ***
  reduction of the TPA-induced ear edema: 79%

## COc1ccc2c(c1)c(CC(=O)O)c(C)n2C(=O)c1ccc(Cl)cc1 [Indomethacin, reference compound]
[1]; indomethacin at 5%, single topical application in 4% arachidonic acid solution, ear thickness measured T+1 h, T+2 h, T+4 h
  inhibition of the ear edema caused by arachidonic acid: 92%

## CCCCC(=O)O[C@]1(C(=O)CO)[C@@H](C)C[C@H]2[C@@H]3CCC4=CC(=O)C=C[C@]4(C)[C@@]3(F)[C@@H](O)C[C@@]21C [betamethasone valerate, reference compound]
[2]; 0.01% diluted in 0.01% TPA solution, ear thickness at T+6 h, ***
  reduction in the TPA-induced ear edema: 93%
